According to patent US12384792B2, “Solid forms of isoquinolinones, and process of making, composition comprising, and methods of using the same” (Twelve Therapeutics, Inc., priority 2015, dated 2025):
In brackets after ≈: the same amount, converted by molar mass. Like-named read-outs stand apart in the source and are kept apart here. Each block holds one molecule with its values, some of them ahead of it.

Experiments:
Type in all cases: physicochemical
[1] = Gravimetric vapour sorption (GVS) isotherm, hygroscopicity; details: for weight increase (GVS): increase in relative humidity from about 0 to about 90% relative humidity
[2] = Static storage stability of solid forms (40° C./75% RH, 25° C./96% RH), form checked by XRPD; details: for Static Stability 40° C./75% RH: dried screening sample, solid form after 7 and 36 days at 40° C./75% RH
[3] = Competitive slurry/water activity experiments with Forms 1 and 6
Text: IPA/water and ACN/water were selected as suitable solvents for the competitive slurry/water activity experiments. These solvent mixtures were selected to have some solubility of the Compound 1 free base and to be able to obtain a wide range of water activities by varying the water content. IPA/water was selected as this solvent often formed solvated forms of the free base and ACN/water was selected as this solvent produced only Form 1 of the free base during the polymorph screening experiments.
There was one exception to this—the IPA/water sample at 50° C. and at a water activity of 0.8 gave Form 1 rather than Form 4.

[4] = Static stability on storage at controlled temperature/RH (XRPD, purity)
Text: (§1) See tables below for the summarized results.

[5] = Gravimetric vapour sorption (GVS); details: for GVS total weight change 0-90% RH: 25° C.
Experimental: Gravimetric Vapour Sorption (GVS)
Sorption isotherms were obtained using a SMS DVS Intrinsic moisture sorption analyser, controlled by DVS Intrinsic Control software v1.0.1.2 (or v 1.0.1.3). The sample temperature was maintained at 25° C. by the instrument controls. The humidity was controlled by mixing streams of dry and wet nitrogen, with a total flow rate of 200 ml/min The relative humidity was measured by a calibrated Rotronic probe (dynamic range of 1.0-100% RH), located near the sample. The weight change, (mass relaxation) of the sample as a function of % RH was constantly monitored by the microbalance (accuracy ±0.005 mg). Typically 5-20 mg of sample was placed in a tared mesh stainless steel basket under ambient conditions. The sample was loaded and unloaded at 40% RH and 25° C. (typical room conditions). A moisture sorption isotherm was performed as outlined below (2 scans giving 1 complete cycle). The standard isotherm was performed at 25° C. at 10% RH intervals over a 0-90% RH range. Data analysis was carried out using Microsoft Excel using DVS Analysis Suite v6.2 (or 6.1 or 6.0).

[6] = Solubility screen: solubility assessment of amorphous Compound 1 in solvents; details: thermodynamic from solid, room temperature
Experimental: Amorphous Compound 1 (30 mg) was weighed out and 100 μl (˜3 vols) solvent was added at room temperature. Many samples initially dissolved but precipitated back out again after stirring for a few minutes. It was assumed that these samples had crystallized, so additional portions of solvent were added to determine the solubility of the crystalline material. See Table 1 for solubility assessment of amorphous Compound 1. […]

[7] = Kinetic solubility after 30 min in water and in 0.1M HCl; details: for solubility kinetic at 30 min: thermodynamic from solid, cocrystal, in duplicate, read-out: 30 min Kinetic solubility (pH)
Text: as §1

[8] = after 63 days, no change in form but loss of crystallinity
[9] = 7 d storage at 40° C./75% RH and at 25° C./97% RH, result stated for both conditions

weight increase (GVS) [1]: about 14%
Static stability at 40° C./75% RH, XRPD ([4]; after 7 days): subtle changes in XRPD after
Static stability at 25° C./96% RH, XRPD ([4]; after 26 days): no change in XRPD after 26
Static stability at 40° C./75% RH, XRPD ([4]; after 26 days): no further changes after 26
Relative stability of forms in ACN/water slurry ([3]; 5° C., ACN/water, water activity 0.8 (15 vol % water)): more stable than Form 1
Hygroscopicity by GVS ([5]; 0-90% RH): hygroscopic. Large steps 40-60%
GVS total weight change 0-90% RH ([5]; 0-90% RH): 15.0 wt %
SMILES: C[C@H](NC(=O)c1c(N)nn2cccnc12)c1cc2cccc(C#Cc3cnn(C)c3)c2c(=O)n1-c1ccccc1 [Form 6, (S)-2-amino-N-(1-(8-((1-methyl-1H-pyrazol-4-yl)ethynyl)-1-oxo-2-phenyl-1,2-dihydroisoquinolin-3-yl)ethyl)pyrazolo[1,5-a]pyrimidine-3-carboxamide]

Static Stability 40° C./75% RH [2]: remains Form 7
SMILES: C[C@H](NC(=O)c1c(N)nn2cccnc12)c1cc2cccc(C#Cc3cnn(C)c3)c2c(=O)n1-c1ccccc1 [Form 7, (S)-2-amino-N-(1-(8-((1-methyl-1H-pyrazol-4-yl)ethynyl)-1-oxo-2-phenyl-1,2-dihydroisoquinolin-3-yl)ethyl)pyrazolo[1,5-a]pyrimidine-3-carboxamide]

solubility ([6]; organic solvent or mixture, in 1,2-Dimethoxyethane): < 17 mg/mL
solubility ([6]; organic solvent or mixture, in 1,4-Dioxane): < 17 mg/mL
solubility ([6]; organic solvent or mixture, in 1-Propanol): < 17 mg/mL
solubility ([6]; organic solvent or mixture, in 2-Methoxyethanol): ≥ 333 mg/mL
solubility ([6]; organic solvent or mixture, in 2-Methyl-1-propanol): < 17 mg/mL
solubility ([6]; organic solvent or mixture, in 2-Propanol): < 17 mg/mL
solubility ([6]; organic solvent or mixture, in Acetone): < 17 mg/mL
solubility ([6]; organic solvent or mixture, in Acetonitrile): < 17 mg/mL
solubility ([6]; organic solvent or mixture, in Chloroform): < 17 mg/mL
solubility ([6]; organic solvent or mixture, in Cyclohexane): < 17 mg/mL
solubility ([6]; organic solvent or mixture, in Dichloromethane): 17 to 20 mg/mL (≈ 32.2 to 37.8 mM)
solubility ([6]; organic solvent or mixture, in Dimethyl sulfoxide): ≥ 333 mg/mL
solubility ([6]; organic solvent or mixture, in Ethanol): < 17 mg/mL
solubility ([6]; organic solvent or mixture, in Ethyl acetate): < 17 mg/mL
solubility ([6]; organic solvent or mixture, in Ethyleneglycol): < 17 mg/mL
solubility ([6]; organic solvent or mixture, in IPA/Water (95/5 v/v)): < 17 mg/mL
solubility ([6]; organic solvent or mixture, in Isopropyl acetate): < 17 mg/mL
solubility ([6]; organic solvent or mixture, in MEK): < 17 mg/mL
solubility ([6]; organic solvent or mixture, in MIBK): < 17 mg/mL
solubility ([6]; organic solvent or mixture, in Methanol): < 17 mg/mL
solubility ([6]; organic solvent or mixture, in N,N-Dimethylformamide): ≥ 333 mg/mL
solubility ([6]; organic solvent or mixture, in Nitromethane): 25 to 33 mg/mL (≈ 47.3 to 62.4 mM)
solubility ([6]; organic solvent or mixture, in THF/Water (95/5 v/v)): < 17 mg/mL
solubility ([6]; organic solvent or mixture, in Tetrahydrofuran): < 17 mg/mL
solubility ([6]; organic solvent or mixture, in Toluene): < 17 mg/mL
solubility ([6]; organic solvent or mixture, in n-Heptane): < 17 mg/mL
solubility ([6]; organic solvent or mixture, in tert-Butylmethyl ether): < 17 mg/mL
solubility ([6]; in Water): < 17 mg/mL
SMILES: C[C@H](NC(=O)c1c(N)nn2cccnc12)c1cc2cccc(C#Cc3cnn(C)c3)c2c(=O)n1-c1ccccc1 [amorphous Compound 1, (S)-2-amino-N-(1-(8-((1-methyl-1H-pyrazol-4-yl)ethynyl)-1-oxo-2-phenyl-1,2-dihydroisoquinolin-3-yl)ethyl)pyrazolo[1,5-a]pyrimidine-3-carboxamide]

weight increase (GVS) [1]: about 3.7%
HPLC purity change after 7 d 40° C. 75% RH 25° C. 97% RH [4, 9]: < 3% for both.
XRPD after 7 d 40° C. 75% RH 25° C. 97% RH [4, 9]: no change
XRPD after 7 d at 25° C. 97% RH ([4]; after 7 d): no changes
Static stability at 40° C./75% RH, XRPD ([4]; after 7 days): no changes
Stability at 25° C./96% RH, purity and XRPD ([4]; after a week): no significant change
Stability at 40° C./75% RH, purity and XRPD ([4]; after a week): no significant change
solubility kinetic at 30 min ([7]; 0.1M HCl, pH 1.3, simulated gastric fluid, in 0.1M HCl, pH 1.3): 0.02 mg/mL (≈ 0.0378 mM)
Kinetic solubility in 0.1M HCl compared with the free base ([7]; after 30 min, 0.1M HCl): very similar to the free base solubility
Kinetic solubility in water compared with the free base ([7]; after 30 min, water): slightly higher solubility values
Kinetic solubility with respect to the free base ([7]; summary statement): slight improve in solubility
solubility kinetic at 30 min ([7]; water, pH 2.9, water, in water, pH 2.9, 3.0): 0.04 mg/mL (≈ 0.0757 mM)
GVS hysteresis [5]: No hysteresis
GVS weight gain from 0-90% RH ([5]; 0-90% RH): 3.67%
Hygroscopicity by GVS ([5]; 0-90% RH): moderately hygroscopic
GVS weight gain ([5]; from 0-90% RH, cycle 2): 3.67%
SMILES: C[C@H](NC(=O)c1c(N)nn2cccnc12)c1cc2cccc(C#Cc3cnn(C)c3)c2c(=O)n1-c1ccccc1 [Form P1C3]

Second part, the molecule before the results:

SMILES: C[C@H](NC(=O)c1c(N)nn2cccnc12)c1cc2cccc(C#Cc3cnn(C)c3)c2c(=O)n1-c1ccccc1 [Form 1, (S)-2-amino-N-(1-(8-((1-methyl-1H-pyrazol-4-yl)ethynyl)-1-oxo-2-phenyl-1,2-dihydroisoquinolin-3-yl)ethyl)pyrazolo[1,5-a]pyrimidine-3-carboxamide]
hygroscopicity [1]: non-hygroscopic
weight increase (GVS) [1]: about 0.5%
stability after storage ([2]; 25° C./96% RH for more than 9 months): stable
stability after storage ([2]; 40° C./75% RH for more than 9 months): stable
Static Stability 40° C./75% RH [2]: no change after 7
Relative stability of forms in ACN/water slurries ([3]; all ACN/water experiments except 50° C. and 5° C. at water activity 0.8): most stable form
Relative stability of forms in IPA/water slurries ([3]; all temperatures (5, 25, 50° C.) and water activities (0.2-0.8), slurried 4 days): more stable than Form 6

SMILES: C[C@H](NC(=O)c1c(N)nn2cccnc12)c1cc2cccc(C#Cc3cnn(C)c3)c2c(=O)n1-c1ccccc1 [Form 3, (S)-2-amino-N-(1-(8-((1-methyl-1H-pyrazol-4-yl)ethynyl)-1-oxo-2-phenyl-1,2-dihydroisoquinolin-3-yl)ethyl)pyrazolo[1,5-a]pyrimidine-3-carboxamide]
Static Stability 40° C./75% RH [2]: remains Form 3

SMILES: C[C@H](NC(=O)c1c(N)nn2cccnc12)c1cc2cccc(C#Cc3cnn(C)c3)c2c(=O)n1-c1ccccc1 [Form 2, (S)-2-amino-N-(1-(8-((1-methyl-1H-pyrazol-4-yl)ethynyl)-1-oxo-2-phenyl-1,2-dihydroisoquinolin-3-yl)ethyl)pyrazolo[1,5-a]pyrimidine-3-carboxamide]
hygroscopicity [1]: non-hygroscopic
weight increase (GVS) [1]: about 1.3%
Static Stability 40° C./75% RH [2]: amorphous after 7

SMILES: C[C@H](NC(=O)c1c(N)nn2cccnc12)c1cc2cccc(C#Cc3cnn(C)c3)c2c(=O)n1-c1ccccc1 [Form 1 reference]
Static stability at 25° C./96% RH, XRPD ([4]; after 7 days): no change after 7 days,
Static stability at 40° C./75% RH, XRPD ([4]; after 7 days): no change after 7 days,
Static stability at 25° C./96% RH, form by XRPD [4, 8]: after 63 days no change
Static stability at 40° C./75% RH, form by XRPD [4, 8]: after 63 days no change
Hygroscopicity by GVS ([5]; 0-90% RH): non-
GVS total weight change 0-90% RH ([5]; 0-90% RH): ~0.5 wt %

SMILES: C[C@H](NC(=O)c1c(N)nn2cccnc12)c1cc2cccc(C#Cc3cnn(C)c3)c2c(=O)n1-c1ccccc1 [Form 4, (S)-2-amino-N-(1-(8-((1-methyl-1H-pyrazol-4-yl)ethynyl)-1-oxo-2-phenyl-1,2-dihydroisoquinolin-3-yl)ethyl)pyrazolo[1,5-a]pyrimidine-3-carboxamide]
Static Stability 40° C./75% RH [2]: remains Form 4
